Measured values: PMC5601486, “Identification of 4-phenylquinolin-2(1H)-one as a specific allosteric inhibitor of Akt” (Scientific Reports, 2017)

Key:
Experiment in all cases: KINOMEscan
Conditions in all cases: 50000 nM
[1] = test system: EPHA4
Procedure: KINOMEscan™ selectivity screen
(§1) Briefly, Kinase-tagged T7 phage strains were grown in parallel in an E. coli host derived from the BL21 strain. E. coli were grown to log-phase and infected with T7 phage from a frozen stock and incubated with shaking at 32°C until lysis (90-150 minutes). The kinases were produced in HEK-293 cells and subsequently tagged with DNA for qPCR detection. Streptavidin-coated magnetic beads were treated with biotinylated small molecule ligands to generate affinity resins for kinase
(§2) inhibitor or DMSO control was performed in polypropylene 384-well plates for 1 hr at room temperature. After wash with PBS buffer containing 0.05% Tween 20, the beads were incubated in elution buffer (PBS containing 0.05 % Tween 20 and 0.5 μM non-biotinylated affinity ligand) for 30 minutes at room temperature. The kinase concentration in the eluates was measured by qPCR.

[2] = test system: PYK2
Procedure: KINOMEscan™ selectivity screen
(§3) Briefly, Kinase-tagged T7 phage strains were grown in parallel in an E. coli host derived from the BL21 strain. E. coli were grown to log-phase and infected with T7 phage from a frozen stock and incubated with shaking at 32°C until lysis (90-150 minutes). The kinases were produced in HEK-293 cells and subsequently tagged with DNA for qPCR detection.
(§4) After wash with PBS buffer containing 0.05% Tween 20, the beads were incubated in elution buffer (PBS containing 0.05 % Tween 20 and 0.5 μM non-biotinylated affinity ligand) for 30 minutes at room temperature. The kinase concentration in the eluates was measured by qPCR.

[3] = test system: HPK1
Procedure: KINOMEscan™ selectivity screen
(§5) The assay was perfor med at DiscoveRx Corporation according the methods published previously5. Briefly, Kinase-tagged T7 phage strains were grown in parallel in an E. coli host derived from the BL21 strain. E. coli were grown to log-phase and infected with T7 phage from a frozen stock and incubated with shaking at 32°C until lysis (90-150 minutes). The kinases were produced in HEK-293 cells and subsequently tagged with DNA for qPCR detection. Streptavidin-coated magnetic beads were treated with biotinylated small molecule ligands to generate affinity resins for kinase
as §2

[4] = test system: EPHA1
Procedure: KINOMEscan™ selectivity screen
as §5, §2

[5] = test system: CDKL2
Procedure: KINOMEscan™ selectivity screen
as §1, §2

[6] = test system: EGFR(L747-T751del,Sins)
Procedure: KINOMEscan™ selectivity screen
as §1, §2

[7] = test system: TNNI3K
Procedure: KINOMEscan™ selectivity screen
as §5, §2

[8] = test system: PAK3
Procedure: KINOMEscan™ selectivity screen
as §5, §2

[9] = test system: GRK3
Procedure: KINOMEscan™ selectivity screen
as §1, §2

[10] = test system: FLT3(K663Q)
Procedure: KINOMEscan™ selectivity screen
as §1, §2

[11] = test system: PIP5K2C
Procedure: KINOMEscan™ selectivity screen
as §1, §2

[12] = test system: PAK1
Procedure: KINOMEscan™ selectivity screen
as §5, §2

[13] = test system: NEK11
Procedure: KINOMEscan™ selectivity screen
as §1, §2

[14] = test system: RPS6KA5(Kin.Dom.2-C-terminal)
Procedure: KINOMEscan™ selectivity screen
as §3, §4

[15] = test system: CIT
Procedure: KINOMEscan™ selectivity screen
The kinases were produced in HEK-293 cells and subsequently tagged with DNA for qPCR detection. Streptavidin-coated magnetic beads were treated with biotinylated small molecule ligands to generate affinity resins for kinase
as §2

[16] = test system: PKN1
Procedure: KINOMEscan™ selectivity screen
as §5, §2

[17] = test system: CSNK2A2
Procedure: KINOMEscan™ selectivity screen
as §1, §2

[18] = test system: EGFR(L747-E749del, A750P)
Procedure: KINOMEscan™ selectivity screen
as §5, §2

[19] = test system: YANK2
Procedure: KINOMEscan™ selectivity screen
as §1, §2

[20] = test system: AURKC
Procedure: KINOMEscan™ selectivity screen
as §5, §2

[21] = test system: EGFR(S752-I759del)
Procedure: KINOMEscan™ selectivity screen
as §5, §2

[22] = test system: EPHA7
Procedure: KINOMEscan™ selectivity screen
as §5, §2

[23] = test system: CSF1R
Procedure: KINOMEscan™ selectivity screen
as §5, §2

[24] = test system: ALK(C1156Y)
Procedure: KINOMEscan™ selectivity screen
as §5, §2

[25] = test system: RPS6KA4(Kin.Dom.2-C-terminal)
Procedure: KINOMEscan™ selectivity screen
as §5, §2

[26] = test system: ERK3
Procedure: KINOMEscan™ selectivity screen
as §1, §2

[27] = test system: FGFR3(G697C)
Procedure: KINOMEscan™ selectivity screen
as §5, §2

[28] = test system: ABL1(E255K)-phosphorylated
Procedure: KINOMEscan™ selectivity screen
as §5, §2

[29] = test system: GSK3B
Procedure: KINOMEscan™ selectivity screen
as §1, §2

[30] = test system: PLK3
Procedure: KINOMEscan™ selectivity screen
as §1, §2

[31] = test system: KIT(V559D,T670I)
Procedure: KINOMEscan™ selectivity screen
as §5, §2

[32] = test system: MAP4K4
Procedure: KINOMEscan™ selectivity screen
as §5, §2

[33] = test system: WEE1
Procedure: KINOMEscan™ selectivity screen
as §5, §2

[34] = test system: PKN2
Procedure: KINOMEscan™ selectivity screen
as §5, §2

[35] = test system: DDR1
Procedure: KINOMEscan™ selectivity screen
as §5, §2

[36] = test system: CASK
Procedure: KINOMEscan™ selectivity screen
as §1, §2

[37] = test system: CSNK1G3
Procedure: KINOMEscan™ selectivity screen
as §1, §2

[38] = test system: AURKB
Procedure: KINOMEscan™ selectivity screen
as §5, §2

[39] = test system: IKK-alpha
Procedure: KINOMEscan™ selectivity screen
as §5, §2

[40] = test system: MST2
Procedure: KINOMEscan™ selectivity screen
The assay was perfor med at DiscoveRx Corporation according the methods published previously5. […] The kinases were produced in HEK-293 cells and subsequently tagged with DNA for qPCR detection. Streptavidin-coated magnetic beads were treated with biotinylated small molecule ligands to generate affinity resins for kinase
as §2

[41] = test system: CTK
Procedure: KINOMEscan™ selectivity screen
as §1, §2

[42] = test system: PRKCD
Procedure: KINOMEscan™ selectivity screen
as §5, §2

[43] = test system: ACVRL1
Procedure: KINOMEscan™ selectivity screen
as §5, §2

[44] = test system: SLK
Procedure: KINOMEscan™ selectivity screen
as §5, §2

[45] = test system: LATS1
Procedure: KINOMEscan™ selectivity screen
as §5, §2

Question: For Oc1cc(-c2ccccc2)c2ccccc2n1 [G7, 4-phenylquinolin-2(1H)-one], which “Percent Control” value [1] is on record?
Answer: 93%

Question: And the “Percent Control” value [2]?
Answer: 93%

Question: And the “Percent Control” value [3]?
Answer: 98%

Question: What about the “Percent Control” value [4] of the same compound?
Answer: 89%

Question: And the “Percent Control” value [5]?
Answer: 69%

Question: And the “Percent Control” value [6]?
Answer: 77%

Question: And the “Percent Control” value [7]?
Answer: 95%

Question: And the “Percent Control” value [8]?
Answer: 81%

Question: What about the “Percent Control” value [9] of the same compound?
Answer: 100%

Question: What about the “Percent Control” value [10] of the same compound?
Answer: 29%

Question: What about the “Percent Control” value [11] of the same compound?
Answer: 83%

Question: What about the “Percent Control” value [12] of the same compound?
Answer: 82%

Question: And the “Percent Control” value [13]?
Answer: 90%

Question: What about the “Percent Control” value [14] of the same compound?
Answer: 93%

Question: And the “Percent Control” value [15]?
Answer: 74%

Question: And the “Percent Control” value [16]?
Answer: 89%

Question: And the “Percent Control” value [17]?
Answer: 70%

Question: And the “Percent Control” value [18]?
Answer: 89%

Question: What about the “Percent Control” value [19] of the same compound?
Answer: 100%

Question: And the “Percent Control” value [20]?
Answer: 66%

Question: What about the “Percent Control” value [21] of the same compound?
Answer: 85%

Question: And the “Percent Control” value [22]?
Answer: 89%

Question: What about the “Percent Control” value [23] of the same compound?
Answer: 7.4%

Question: And the “Percent Control” value [24]?
Answer: 80%

Question: What about the “Percent Control” value [25] of the same compound?
Answer: 92%

Question: What about the “Percent Control” value [26] of the same compound?
Answer: 92%

Question: And the “Percent Control” value [27]?
Answer: 98%

Question: And the “Percent Control” value [28]?
Answer: 56%

Question: And the “Percent Control” value [29]?
Answer: 68%

Question: And the “Percent Control” value [30]?
Answer: 83%

Question: And the “Percent Control” value [31]?
Answer: 44%

Question: What about the “Percent Control” value [32] of the same compound?
Answer: 100%

Question: What about the “Percent Control” value [33] of the same compound?
Answer: 100%

Question: What about the “Percent Control” value [34] of the same compound?
Answer: 89%

Question: What about the “Percent Control” value [35] of the same compound?
Answer: 84%

Question: And the “Percent Control” value [36]?
Answer: 89%

Question: What about the “Percent Control” value [37] of the same compound?
Answer: 71%

Question: What about the “Percent Control” value [38] of the same compound?
Answer: 91%

Question: And the “Percent Control” value [39]?
Answer: 92%

Question: What about the “Percent Control” value [40] of the same compound?
Answer: 76%

Question: What about the “Percent Control” value [41] of the same compound?
Answer: 74%

Question: And the “Percent Control” value [42]?
Answer: 100%

Question: And the “Percent Control” value [43]?
Answer: 100%

Question: And the “Percent Control” value [44]?
Answer: 89%

Question: What about the “Percent Control” value [45] of the same compound?
Answer: 87%
